Test results: article doi:10.1101/208439v1 (biorxiv, 2017)

Tests used:
Experiment in all cases: biochemical
DNMT3a = DNMT3a (Homo sapiens, UniProt Q9Y6K1)
PRMT3 = PRMT3 (Homo sapiens, UniProt O60678)
DNMT3b/3L = DNMT3b/3L (Homo sapiens, UniProt Q9UBC3)
SMYD1 = target: T1, SMYD1 (Homo sapiens, UniProt Q8NB12)
T1 sequence (Q8NB12 1-490): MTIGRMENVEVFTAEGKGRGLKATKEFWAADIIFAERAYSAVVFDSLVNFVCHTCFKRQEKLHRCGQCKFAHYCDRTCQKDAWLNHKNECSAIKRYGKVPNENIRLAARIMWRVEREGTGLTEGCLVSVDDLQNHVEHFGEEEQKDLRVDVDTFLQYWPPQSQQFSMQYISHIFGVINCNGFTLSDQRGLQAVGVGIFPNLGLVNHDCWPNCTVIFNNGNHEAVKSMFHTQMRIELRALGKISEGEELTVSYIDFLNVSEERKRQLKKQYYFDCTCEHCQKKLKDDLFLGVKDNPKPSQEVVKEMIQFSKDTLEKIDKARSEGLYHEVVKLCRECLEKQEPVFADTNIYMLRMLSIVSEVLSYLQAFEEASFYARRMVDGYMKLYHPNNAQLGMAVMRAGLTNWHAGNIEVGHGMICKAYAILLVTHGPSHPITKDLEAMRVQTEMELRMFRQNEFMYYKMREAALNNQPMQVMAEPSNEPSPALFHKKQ

GLP = target: T2, GLP (Homo sapiens, UniProt Q9H9B1)
T2 construct: gene EHMT1
T2 sequence (Q9H9B1 1-1298): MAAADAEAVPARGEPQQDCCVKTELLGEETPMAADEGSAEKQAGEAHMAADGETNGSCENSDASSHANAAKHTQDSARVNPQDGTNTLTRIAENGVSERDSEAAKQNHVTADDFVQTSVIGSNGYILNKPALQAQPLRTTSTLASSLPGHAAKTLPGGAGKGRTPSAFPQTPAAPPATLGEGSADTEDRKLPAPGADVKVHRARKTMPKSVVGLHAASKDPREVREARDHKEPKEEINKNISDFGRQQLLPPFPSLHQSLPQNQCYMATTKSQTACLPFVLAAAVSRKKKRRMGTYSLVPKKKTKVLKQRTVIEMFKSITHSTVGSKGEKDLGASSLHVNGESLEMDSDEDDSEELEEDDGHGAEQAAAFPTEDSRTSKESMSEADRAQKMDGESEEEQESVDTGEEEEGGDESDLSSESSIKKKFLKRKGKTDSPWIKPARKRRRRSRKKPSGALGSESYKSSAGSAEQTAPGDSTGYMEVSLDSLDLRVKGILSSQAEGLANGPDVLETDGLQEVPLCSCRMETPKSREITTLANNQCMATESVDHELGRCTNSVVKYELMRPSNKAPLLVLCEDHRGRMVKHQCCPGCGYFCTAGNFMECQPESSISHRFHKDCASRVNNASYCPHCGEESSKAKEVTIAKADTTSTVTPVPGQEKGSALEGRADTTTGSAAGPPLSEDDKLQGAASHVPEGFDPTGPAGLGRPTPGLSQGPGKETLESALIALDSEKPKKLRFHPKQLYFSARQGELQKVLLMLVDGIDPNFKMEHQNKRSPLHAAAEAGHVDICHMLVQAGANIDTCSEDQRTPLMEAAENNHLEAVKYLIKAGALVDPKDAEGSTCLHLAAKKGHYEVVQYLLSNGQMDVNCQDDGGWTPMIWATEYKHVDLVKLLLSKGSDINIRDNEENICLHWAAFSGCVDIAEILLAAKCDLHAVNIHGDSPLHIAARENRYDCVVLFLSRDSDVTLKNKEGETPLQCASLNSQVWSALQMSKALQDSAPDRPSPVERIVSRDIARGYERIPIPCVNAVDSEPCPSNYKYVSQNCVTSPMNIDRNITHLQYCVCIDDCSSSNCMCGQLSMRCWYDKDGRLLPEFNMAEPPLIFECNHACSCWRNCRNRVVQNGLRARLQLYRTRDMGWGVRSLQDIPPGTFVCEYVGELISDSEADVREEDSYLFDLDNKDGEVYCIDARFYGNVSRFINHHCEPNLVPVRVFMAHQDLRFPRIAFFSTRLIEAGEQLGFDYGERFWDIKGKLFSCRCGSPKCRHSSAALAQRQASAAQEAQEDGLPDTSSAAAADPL

SUV39H2 = SUV39H2 (Homo sapiens, UniProt Q9H5I1)
SETD2 = target: T3, SETD2 (Homo sapiens, UniProt Q9BYW2)
T3 sequence (Q9BYW2 1434-1711): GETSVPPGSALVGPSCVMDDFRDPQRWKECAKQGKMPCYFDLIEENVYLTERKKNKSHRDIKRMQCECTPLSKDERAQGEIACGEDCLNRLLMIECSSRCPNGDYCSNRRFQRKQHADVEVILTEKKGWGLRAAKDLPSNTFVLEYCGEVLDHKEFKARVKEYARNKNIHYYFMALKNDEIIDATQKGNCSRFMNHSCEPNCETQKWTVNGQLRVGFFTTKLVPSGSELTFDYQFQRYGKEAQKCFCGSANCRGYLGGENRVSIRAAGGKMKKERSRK

SET7/9 = target: T4, SET7/9 (Homo sapiens, UniProt Q8WTS6)
T4 construct: gene SETD7
T4 sequence (Q8WTS6 1-366): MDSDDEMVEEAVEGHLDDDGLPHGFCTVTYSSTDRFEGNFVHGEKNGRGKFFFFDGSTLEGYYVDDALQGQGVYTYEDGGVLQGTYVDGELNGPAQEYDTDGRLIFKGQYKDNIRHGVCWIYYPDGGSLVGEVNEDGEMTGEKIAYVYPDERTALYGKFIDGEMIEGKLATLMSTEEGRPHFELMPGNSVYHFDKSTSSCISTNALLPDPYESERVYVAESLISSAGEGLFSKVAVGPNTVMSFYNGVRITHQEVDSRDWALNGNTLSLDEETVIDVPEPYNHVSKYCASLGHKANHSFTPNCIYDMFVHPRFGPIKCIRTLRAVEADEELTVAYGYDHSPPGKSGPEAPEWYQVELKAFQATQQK

MLL4 Complex = MLL4 Complex (Homo sapiens, UniProt Q9UMN6); set-up: gene KMT2B
MLL1 Complex = MLL1 Complex (Homo sapiens, UniProt Q03164); set-up: gene KMT2A
MLL2 Complex = MLL2 Complex (Homo sapiens, UniProt O14686); set-up: gene KMT2D
MLL3 Complex = MLL3 Complex (Homo sapiens, UniProt Q8NEZ4); set-up: gene KMT2C
SET1b Complex = SET1b Complex (Homo sapiens, UniProt Q9UPS6); set-up: gene SETD1B
Sequence of SET1b Complex (Q9UPS6 whole entry, looked up, one chain of several): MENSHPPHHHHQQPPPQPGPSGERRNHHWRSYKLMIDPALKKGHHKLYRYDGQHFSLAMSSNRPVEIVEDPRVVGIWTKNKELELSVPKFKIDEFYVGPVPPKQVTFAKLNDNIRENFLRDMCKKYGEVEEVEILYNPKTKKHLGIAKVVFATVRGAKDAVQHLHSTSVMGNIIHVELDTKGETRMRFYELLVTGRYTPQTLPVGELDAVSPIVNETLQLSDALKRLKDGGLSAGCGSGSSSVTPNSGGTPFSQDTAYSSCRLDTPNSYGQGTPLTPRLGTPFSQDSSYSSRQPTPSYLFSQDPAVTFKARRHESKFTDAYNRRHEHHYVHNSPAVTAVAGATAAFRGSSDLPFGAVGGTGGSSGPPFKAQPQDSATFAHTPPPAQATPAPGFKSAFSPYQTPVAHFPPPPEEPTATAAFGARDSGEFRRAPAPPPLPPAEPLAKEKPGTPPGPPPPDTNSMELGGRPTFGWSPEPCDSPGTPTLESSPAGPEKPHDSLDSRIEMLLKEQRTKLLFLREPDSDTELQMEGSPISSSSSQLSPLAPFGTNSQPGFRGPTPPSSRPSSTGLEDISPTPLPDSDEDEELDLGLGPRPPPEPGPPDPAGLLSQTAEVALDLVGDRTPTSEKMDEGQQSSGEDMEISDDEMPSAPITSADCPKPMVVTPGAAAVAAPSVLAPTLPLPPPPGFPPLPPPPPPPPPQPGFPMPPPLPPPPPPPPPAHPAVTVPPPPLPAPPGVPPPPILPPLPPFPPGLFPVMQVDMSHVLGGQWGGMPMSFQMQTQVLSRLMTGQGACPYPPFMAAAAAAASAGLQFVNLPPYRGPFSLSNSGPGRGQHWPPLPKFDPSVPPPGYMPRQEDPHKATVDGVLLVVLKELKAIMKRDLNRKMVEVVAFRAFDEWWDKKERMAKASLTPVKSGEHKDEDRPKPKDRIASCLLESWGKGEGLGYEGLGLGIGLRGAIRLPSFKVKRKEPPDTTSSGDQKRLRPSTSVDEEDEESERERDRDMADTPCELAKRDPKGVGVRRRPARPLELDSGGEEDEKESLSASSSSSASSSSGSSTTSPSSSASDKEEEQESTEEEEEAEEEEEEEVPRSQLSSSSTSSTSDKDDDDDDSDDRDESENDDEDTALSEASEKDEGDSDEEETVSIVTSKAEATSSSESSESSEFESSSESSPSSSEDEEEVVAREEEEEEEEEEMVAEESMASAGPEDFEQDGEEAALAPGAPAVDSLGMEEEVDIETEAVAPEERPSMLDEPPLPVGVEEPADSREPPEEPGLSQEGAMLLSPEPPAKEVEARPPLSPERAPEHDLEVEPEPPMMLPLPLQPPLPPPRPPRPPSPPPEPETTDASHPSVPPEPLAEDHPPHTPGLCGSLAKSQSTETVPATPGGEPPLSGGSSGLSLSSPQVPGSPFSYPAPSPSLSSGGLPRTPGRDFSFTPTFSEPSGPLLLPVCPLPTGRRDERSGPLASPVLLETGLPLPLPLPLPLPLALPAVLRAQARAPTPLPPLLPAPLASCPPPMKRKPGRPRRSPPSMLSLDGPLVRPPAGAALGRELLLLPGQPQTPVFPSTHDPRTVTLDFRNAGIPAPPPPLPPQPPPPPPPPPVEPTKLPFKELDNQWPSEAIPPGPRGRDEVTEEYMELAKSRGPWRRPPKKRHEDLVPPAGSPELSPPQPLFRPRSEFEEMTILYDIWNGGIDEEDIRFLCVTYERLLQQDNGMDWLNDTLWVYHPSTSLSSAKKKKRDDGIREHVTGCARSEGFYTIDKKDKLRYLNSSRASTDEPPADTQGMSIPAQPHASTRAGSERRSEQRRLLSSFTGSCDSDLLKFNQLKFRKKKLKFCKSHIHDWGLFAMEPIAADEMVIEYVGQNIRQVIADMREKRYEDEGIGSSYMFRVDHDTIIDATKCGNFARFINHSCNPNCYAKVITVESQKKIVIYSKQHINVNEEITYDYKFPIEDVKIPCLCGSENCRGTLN

Sequence of MLL4 Complex (Q9UMN6 whole entry, looked up, one chain of several): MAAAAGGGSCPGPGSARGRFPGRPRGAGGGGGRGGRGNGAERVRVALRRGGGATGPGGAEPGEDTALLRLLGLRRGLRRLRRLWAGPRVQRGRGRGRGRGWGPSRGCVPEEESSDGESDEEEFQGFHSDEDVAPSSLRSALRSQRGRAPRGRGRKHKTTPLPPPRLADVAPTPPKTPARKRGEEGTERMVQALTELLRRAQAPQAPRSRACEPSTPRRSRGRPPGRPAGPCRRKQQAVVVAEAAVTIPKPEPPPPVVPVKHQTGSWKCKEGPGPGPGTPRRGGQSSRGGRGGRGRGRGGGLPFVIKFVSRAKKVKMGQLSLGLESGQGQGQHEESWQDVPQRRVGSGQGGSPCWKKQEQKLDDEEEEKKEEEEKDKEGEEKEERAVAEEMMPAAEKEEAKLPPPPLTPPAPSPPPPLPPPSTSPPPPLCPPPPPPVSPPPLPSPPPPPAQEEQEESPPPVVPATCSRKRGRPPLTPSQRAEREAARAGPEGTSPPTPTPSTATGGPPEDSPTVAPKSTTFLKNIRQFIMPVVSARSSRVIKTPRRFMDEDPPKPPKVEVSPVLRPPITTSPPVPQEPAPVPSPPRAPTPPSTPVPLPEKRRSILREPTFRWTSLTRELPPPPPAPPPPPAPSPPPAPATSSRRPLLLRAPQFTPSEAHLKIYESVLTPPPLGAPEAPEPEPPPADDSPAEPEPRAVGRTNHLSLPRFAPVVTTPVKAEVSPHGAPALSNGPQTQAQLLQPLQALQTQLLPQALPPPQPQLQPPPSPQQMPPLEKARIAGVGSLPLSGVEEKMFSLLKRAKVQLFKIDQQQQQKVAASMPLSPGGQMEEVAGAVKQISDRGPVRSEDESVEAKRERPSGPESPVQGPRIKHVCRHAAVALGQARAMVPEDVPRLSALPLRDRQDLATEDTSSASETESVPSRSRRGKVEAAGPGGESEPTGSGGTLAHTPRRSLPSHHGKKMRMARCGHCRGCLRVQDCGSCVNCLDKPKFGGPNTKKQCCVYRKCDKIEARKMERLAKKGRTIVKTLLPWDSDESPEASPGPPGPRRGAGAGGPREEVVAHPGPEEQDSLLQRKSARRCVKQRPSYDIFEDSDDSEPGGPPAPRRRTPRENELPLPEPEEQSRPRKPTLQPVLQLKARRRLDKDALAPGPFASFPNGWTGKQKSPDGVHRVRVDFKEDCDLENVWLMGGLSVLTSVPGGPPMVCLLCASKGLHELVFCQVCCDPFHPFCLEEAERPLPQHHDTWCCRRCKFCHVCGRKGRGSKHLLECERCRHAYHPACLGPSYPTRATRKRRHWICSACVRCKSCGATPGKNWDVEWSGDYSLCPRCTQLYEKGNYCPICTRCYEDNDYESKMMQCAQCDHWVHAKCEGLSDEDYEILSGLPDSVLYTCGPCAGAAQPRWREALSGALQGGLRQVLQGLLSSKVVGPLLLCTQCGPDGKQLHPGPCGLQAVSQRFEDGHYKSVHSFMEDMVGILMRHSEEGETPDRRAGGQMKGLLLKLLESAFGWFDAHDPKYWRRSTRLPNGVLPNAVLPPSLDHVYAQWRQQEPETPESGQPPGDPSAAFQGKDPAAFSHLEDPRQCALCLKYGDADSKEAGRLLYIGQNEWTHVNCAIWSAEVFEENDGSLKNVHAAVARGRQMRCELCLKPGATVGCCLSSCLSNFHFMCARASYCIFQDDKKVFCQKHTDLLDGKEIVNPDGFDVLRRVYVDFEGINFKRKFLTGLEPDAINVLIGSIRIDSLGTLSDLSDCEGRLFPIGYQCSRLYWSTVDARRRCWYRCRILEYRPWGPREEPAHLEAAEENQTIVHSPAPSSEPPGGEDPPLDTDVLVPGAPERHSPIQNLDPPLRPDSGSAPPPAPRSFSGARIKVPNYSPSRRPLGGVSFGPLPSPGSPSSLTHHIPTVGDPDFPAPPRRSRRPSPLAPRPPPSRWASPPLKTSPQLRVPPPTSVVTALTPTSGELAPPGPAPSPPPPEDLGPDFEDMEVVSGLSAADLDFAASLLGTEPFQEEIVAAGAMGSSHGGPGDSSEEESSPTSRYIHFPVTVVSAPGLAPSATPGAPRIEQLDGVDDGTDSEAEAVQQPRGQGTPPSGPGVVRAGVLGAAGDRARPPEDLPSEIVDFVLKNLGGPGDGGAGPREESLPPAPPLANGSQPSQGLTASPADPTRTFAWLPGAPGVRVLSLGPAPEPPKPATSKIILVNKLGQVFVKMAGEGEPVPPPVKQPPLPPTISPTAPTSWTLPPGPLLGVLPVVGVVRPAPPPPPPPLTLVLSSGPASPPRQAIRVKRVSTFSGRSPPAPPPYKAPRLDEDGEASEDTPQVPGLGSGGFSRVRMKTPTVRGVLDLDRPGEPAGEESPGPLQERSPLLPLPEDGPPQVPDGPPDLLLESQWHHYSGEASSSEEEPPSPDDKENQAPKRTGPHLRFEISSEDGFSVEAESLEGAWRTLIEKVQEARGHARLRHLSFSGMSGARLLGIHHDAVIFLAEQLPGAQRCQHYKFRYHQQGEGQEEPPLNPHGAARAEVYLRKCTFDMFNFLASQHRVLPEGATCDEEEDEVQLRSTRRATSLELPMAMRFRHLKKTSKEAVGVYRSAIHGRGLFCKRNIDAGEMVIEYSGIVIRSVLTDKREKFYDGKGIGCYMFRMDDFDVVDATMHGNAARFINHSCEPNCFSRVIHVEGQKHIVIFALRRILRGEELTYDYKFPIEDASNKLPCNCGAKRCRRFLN
Sequence of SUV39H2 (Q9H5I1 48-410): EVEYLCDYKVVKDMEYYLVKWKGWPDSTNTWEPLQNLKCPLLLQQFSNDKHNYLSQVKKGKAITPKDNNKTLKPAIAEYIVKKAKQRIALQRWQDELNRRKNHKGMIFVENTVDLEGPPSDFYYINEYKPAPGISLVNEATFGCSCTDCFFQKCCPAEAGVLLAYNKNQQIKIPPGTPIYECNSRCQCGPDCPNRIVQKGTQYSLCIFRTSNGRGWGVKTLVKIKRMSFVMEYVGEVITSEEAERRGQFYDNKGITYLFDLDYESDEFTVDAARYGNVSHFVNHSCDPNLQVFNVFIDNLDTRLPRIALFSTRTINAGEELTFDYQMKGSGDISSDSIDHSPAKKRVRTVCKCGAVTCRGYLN

IC50 (DNMT3a): 0.12 µM
IC50 (PRMT3): 2.3 µM
IC50 (DNMT3b/3L): 0.012 µM
IC50 (SMYD1): 37 µM
IC50 (GLP): 0.53 µM
IC50 (SUV39H2): 55 µM
IC50 (SETD2): 5.2 µM
IC50 (SET7/9): 83 µM
IC50 (MLL4 Complex): 2.5 µM
IC50 (MLL1 Complex): 0.55 µM
IC50 (MLL2 Complex): 27 µM
IC50 (MLL3 Complex): 57 µM
IC50 (SET1b Complex): 1.5 µM
SMILES: Nc1ncnc2c1ncn2[C@@H]1O[C@H](CSCC[C@H](N)C(=O)O)[C@@H](O)[C@H]1O [SAH]
